Species: Rattus norvegicus
Test: DrugMatrix - Regimen: Daily Repeat
Type: toxicity, organism-based, Sprague-Dawley
Parameters: regimen Daily Repeat, gender Male, age 6-8 weeks
Settings: in vivo, iv, vehicle 100 % SALINE; for ABSOLUTE BASOPHIL / ABSOLUTE EOSINOPHIL / ABSOLUTE LYMPHOCYTE / ABSOLUTE MONOCYTE / ABSOLUTE SEGMENTED NEUTROPHIL / BASOPHIL / EOSINOPHIL / ERYTHROCYTE COUNT / HEMATOCRIT / HEMOGLOBIN / LYMPHOCYTE / MEAN CORPUSCULAR HEMOGLOBIN / MEAN CORPUSCULAR HEMOGLOBIN CONCENTRATION / MONOCYTE / NEUTROPHIL / NUCLEATED RED BLOOD CELLS / PLATELET COUNT: tissue Blood; for ALANINE AMINOTRANSFERASE / ALBUMIN / ALKALINE PHOSPHATASE / ASPARTATE AMINOTRANSFERASE / BLOOD UREA NITROGEN / CARBON DIOXIDE / CHLORIDE / CHOLESTEROL / CREATINE PHOSPHOKINASE / CREATININE / GLUCOSE / LIPASE / PHOSPHORUS / POTASSIUM / SODIUM / TOTAL BILIRUBIN / TOTAL PROTEIN / URIC ACID: tissue Plasma
[1] = 0 mg/kg, 72 h, dose level Control, time 3 day
[2] = 0 mg/kg, 120 h, dose level Control, time 5 day
[3] = 5 mg/kg, 72 h, dose level High, time 3 day

CCc1c2c(nc3ccc(OC(=O)N4CCC(N5CCCCC5)CC4)cc13)-c1cc3c(c(=O)n1C2)COC(=O)[C@]3(O)CC [IRINOTECAN]
ABSOLUTE BASOPHIL [1]: 0 CELLS/uL | ABSOLUTE EOSINOPHIL [1]: 23.17 CELLS/uL | ABSOLUTE LYMPHOCYTE [1]: 12448.83 CELLS/uL | ABSOLUTE MONOCYTE [1]: 259.5 CELLS/uL | ABSOLUTE SEGMENTED NEUTROPHIL [1]: 1635.17 CELLS/uL | BASOPHIL [1]: 0% | EOSINOPHIL [1]: 0.17% | ERYTHROCYTE COUNT [1]: 5.35 x10E6/uL | HEMATOCRIT [1]: 34.85% | HEMOGLOBIN [1]: 13.72 G/DL | LYMPHOCYTE [1]: 86.5% | MEAN CORPUSCULAR HEMOGLOBIN [1]: 25.67 pg | MEAN CORPUSCULAR HEMOGLOBIN CONCENTRATION [1]: 39.38 G/DL | MONOCYTE [1]: 1.83% | NEUTROPHIL [1]: 11.5% | NUCLEATED RED BLOOD CELLS [1]: 0 /100WBC | PLATELET COUNT [1]: 1248.67 x10E3/uL | ALANINE AMINOTRANSFERASE [1]: 56.5 u/L | ALBUMIN [1]: 4.27 G/DL | ALKALINE PHOSPHATASE [1]: 334 u/L | ASPARTATE AMINOTRANSFERASE [1]: 85.5 u/L | BLOOD UREA NITROGEN [1]: 16.33 mg/dL | CARBON DIOXIDE [1]: 26.5 mmol/L | CHLORIDE [1]: 100.17 MEQ/L | CHOLESTEROL [1]: 70.33 mg/dL | CREATINE PHOSPHOKINASE [1]: 339.5 u/L | CREATININE [1]: 0.18 mg/dL | GLUCOSE [1]: 155.17 mg/dL | LIPASE [1]: 9.5 u/L | PHOSPHORUS [1]: 13.55 mg/dL | POTASSIUM [1]: 6.68 MEQ/L | SODIUM [1]: 143.87 MEQ/L | TOTAL BILIRUBIN [1]: 0.2 mg/dL | TOTAL PROTEIN [1]: 5.98 G/DL | URIC ACID [1]: 1.53 mg/dL | ABSOLUTE BASOPHIL [2]: 0 CELLS/uL | ABSOLUTE EOSINOPHIL [2]: 16.17 CELLS/uL | ABSOLUTE LYMPHOCYTE [2]: 10653.67 CELLS/uL | ABSOLUTE MONOCYTE [2]: 17.17 CELLS/uL | ABSOLUTE SEGMENTED NEUTROPHIL [2]: 746.33 CELLS/uL | BASOPHIL [2]: 0% | EOSINOPHIL [2]: 0.17% | ERYTHROCYTE COUNT [2]: 5.88 x10E6/uL | HEMATOCRIT [2]: 36.68% | HEMOGLOBIN [2]: 14.6 G/DL | LYMPHOCYTE [2]: 91.83% | MEAN CORPUSCULAR HEMOGLOBIN [2]: 24.85 pg | MEAN CORPUSCULAR HEMOGLOBIN CONCENTRATION [2]: 39.8 G/DL | MONOCYTE [2]: 0.17% | NEUTROPHIL [2]: 7.83% | NUCLEATED RED BLOOD CELLS [2]: 0 /100WBC | PLATELET COUNT [2]: 1219.5 x10E3/uL | ALANINE AMINOTRANSFERASE [2]: 45.5 u/L | ALBUMIN [2]: 4.23 G/DL | ALKALINE PHOSPHATASE [2]: 330.17 u/L | ASPARTATE AMINOTRANSFERASE [2]: 93.33 u/L | BLOOD UREA NITROGEN [2]: 18 mg/dL | CARBON DIOXIDE [2]: 25.5 mmol/L | CHLORIDE [2]: 96.33 MEQ/L | CHOLESTEROL [2]: 73.5 mg/dL | CREATINE PHOSPHOKINASE [2]: 434 u/L | CREATININE [2]: 0.2 mg/dL | GLUCOSE [2]: 148.83 mg/dL | LIPASE [2]: 10 u/L | PHOSPHORUS [2]: 12.63 mg/dL | POTASSIUM [2]: 6.66 MEQ/L | SODIUM [2]: 139.78 MEQ/L | TOTAL BILIRUBIN [2]: 0.15 mg/dL | TOTAL PROTEIN [2]: 6.1 G/DL | URIC ACID [2]: 2.02 mg/dL | ABSOLUTE BASOPHIL [3]: 0 CELLS/uL | ABSOLUTE EOSINOPHIL [3]: 80.67 CELLS/uL | ABSOLUTE LYMPHOCYTE [3]: 9024 CELLS/uL | ABSOLUTE MONOCYTE [3]: 170 CELLS/uL | ABSOLUTE SEGMENTED NEUTROPHIL [3]: 658.67 CELLS/uL | BASOPHIL [3]: 0% | EOSINOPHIL [3]: 0.67% | ERYTHROCYTE COUNT [3]: 5.4 x10E6/uL | HEMATOCRIT [3]: 34.93% | HEMOGLOBIN [3]: 13.9 G/DL | LYMPHOCYTE [3]: 90.67% | MEAN CORPUSCULAR HEMOGLOBIN [3]: 25.73 pg | MEAN CORPUSCULAR HEMOGLOBIN CONCENTRATION [3]: 39.77 G/DL | MONOCYTE [3]: 1.67% | NEUTROPHIL [3]: 7% | NUCLEATED RED BLOOD CELLS [3]: 0 /100WBC | PLATELET COUNT [3]: 1386.67 x10E3/uL | ALANINE AMINOTRANSFERASE [3]: 49 u/L | ALBUMIN [3]: 4.27 G/DL | ALKALINE PHOSPHATASE [3]: 402.67 u/L | ASPARTATE AMINOTRANSFERASE [3]: 93 u/L | BLOOD UREA NITROGEN [3]: 14.67 mg/dL | CARBON DIOXIDE [3]: 26.67 mmol/L | CHLORIDE [3]: 102.67 MEQ/L | CHOLESTEROL [3]: 65 mg/dL | CREATINE PHOSPHOKINASE [3]: 421.33 u/L | CREATININE [3]: 0.18 mg/dL | GLUCOSE [3]: 152.67 mg/dL | LIPASE [3]: 10 u/L | PHOSPHORUS [3]: 14.3 mg/dL | POTASSIUM [3]: 6.6 MEQ/L | SODIUM [3]: 145.83 MEQ/L | TOTAL BILIRUBIN [3]: 0.17 mg/dL | TOTAL PROTEIN [3]: 5.8 G/DL
